Laboratory results from PubChem BioAssay AID1259407 (Chemical Carcinogenesis Research Information System (CCRIS), 2018).
Activity calls are given as the source filed them. No rule for the calls is given here.

Test system: CCRIS mutagenicity, Ames/micronucleus/aberration tests
Experiment: CCRIS mutagenicity studies
[1] = Test System: AMES SALMONELLA TYPHIMURIUM, Strain/Indicator: TA98, Metabolic Activation: RAT, LIVER, S-9, AROCLOR 1254, Method: STANDARD PLATE
[2] = Test System: AMES SALMONELLA TYPHIMURIUM, Strain/Indicator: TA100, Metabolic Activation: RAT, LIVER, S-9, AROCLOR 1254, Method: STANDARD PLATE

How did the mutagenic call (Test System: AMES SALMONELLA TYPHIMURIUM, Strain/Indicator: TA98, Metabolic Activation: NONE, Method: STANDARD PLATE) turn out when `O=P(O)(O)OCC(O)CO` (centres undefined) was run?
The mutagenic call was “inactive; negative”.

What about the mutagenic call [1] of the same molecule?
Its mutagenic call is “inactive; negative”.

What about the mutagenic call (Test System: AMES SALMONELLA TYPHIMURIUM, Strain/Indicator: TA100, Metabolic Activation: NONE, Method: STANDARD PLATE) of the same molecule?
The mutagenic call was “inactive; negative”.

And the mutagenic call [2]?
Its mutagenic call is “inactive; negative”.

What about the mutagenic call (Test System: AMES SALMONELLA TYPHIMURIUM, Strain/Indicator: TA1535, Metabolic Activation: NONE, Method: STANDARD PLATE) of the same molecule?
The mutagenic call was “inactive; negative”.

What about the mutagenic call (Test System: AMES SALMONELLA TYPHIMURIUM, Strain/Indicator: TA1535, Metabolic Activation: RAT, LIVER, S-9, AROCLOR 1254, Method: STANDARD PLATE) of the same molecule?
The mutagenic call was “inactive; negative”.

What about the mutagenic call (Test System: AMES SALMONELLA TYPHIMURIUM, Strain/Indicator: TA1537, Metabolic Activation: NONE, Method: STANDARD PLATE) of the same molecule?
The mutagenic call was “inactive; negative”.

What about the mutagenic call (Test System: AMES SALMONELLA TYPHIMURIUM, Strain/Indicator: TA1537, Metabolic Activation: RAT, LIVER, S-9, AROCLOR 1254, Method: STANDARD PLATE) of the same molecule?
The mutagenic call was “inactive; negative”.

What about the mutagenic call (Test System: AMES SALMONELLA TYPHIMURIUM, Strain/Indicator: TA1538, Metabolic Activation: NONE, Method: STANDARD PLATE) of the same molecule?
The mutagenic call was “inactive; negative”.

And the mutagenic call (Test System: AMES SALMONELLA TYPHIMURIUM, Strain/Indicator: TA1538, Metabolic Activation: RAT, LIVER, S-9, AROCLOR 1254, Method: STANDARD PLATE)?
The mutagenic call was “inactive; negative”.

What about the mutagenic call (Test System: E. COLI, Strain/Indicator: WP2, Metabolic Activation: NONE, Method: STANDARD PLATE) of the same molecule?
The mutagenic call was “inactive; negative”.

What about the mutagenic call (Test System: E. COLI, Strain/Indicator: WP2, Metabolic Activation: RAT, LIVER, S-9, AROCLOR 1254, Method: STANDARD PLATE) of the same molecule?
The mutagenic call was “inactive; negative”.

`C1=CC2CCCCC2c2ccccc21` (centres undefined) was tested. Which mutagenic call (Test System: AMES SALMONELLA TYPHIMURIUM, Strain/Indicator: TA98, Metabolic Activation: RAT, LIVER, S-9, SODIUM PHENOBARBITAL AND BETA-NAPHTHOFLAVONE, Method: STANDARD PLATE) did it give?
Its mutagenic call is “active; positive”.

And the mutagenic call (Test System: AMES SALMONELLA TYPHIMURIUM, Strain/Indicator: TA100, Metabolic Activation: RAT, LIVER, S-9, SODIUM PHEOBARBITAL AND BETA-NAPHTHOFLAVONE, Method: STANDARD PLATE)?
The mutagenic call was “active; positive”.

How did the mutagenic call (End Point: In vitro chromosomal aberrations, Test System: Human lymphocytes, Metabolic Activation: None) turn out when `OC(c1ccc(Cl)cc1)(c1cncnc1)c1ccccc1Cl` (centres undefined) was run?
The mutagenic call was “inactive; negative”.

What about the mutagenic call (End Point: In vitro chromosomal aberrations, Test System: Human lymphocytes, Metabolic Activation: S-9) of the same molecule?
Its mutagenic call is “inactive; negative”.

What about the mutagenic call (End Point: In vivo micronucleus, Test System: Bone marrow polychromatic erythrocytes, Species: Mouse, Strain/Sex: Not specified/Male, Route: Oral) of the same molecule?
The mutagenic call was “active; positive. statistically significant increase at 24 hr but no effects at 48 or 72”.

And the mutagenic call (End Point: In vivo micronucleus, Test System: Bone marrow polychromatic erythrocytes, Species: Rat, Strain/Sex: Sprague-Dawley (Male and female), Route: Oral)?
Its mutagenic call is “inactive; negative”.

What about the mutagenic call (Test System: Ames Salmonella typhimurium, Strain/Indicator: TA98, Metabolic Activation: None, Method: Plate incorporation) of the same molecule?
The mutagenic call was “inactive; negative”.

And the mutagenic call (Test System: Ames Salmonella typhimurium, Strain/Indicator: TA98, Metabolic Activation: Rat, Liver, S-9, Method: Plate incorporation)?
The mutagenic call was “inactive; negative”.

And the mutagenic call (Test System: Ames Salmonella typhimurium, Strain/Indicator: TA100, Metabolic Activation: None, Method: Plate incorporation)?
Its mutagenic call is “inactive; negative”.

And the mutagenic call (Test System: Ames Salmonella typhimurium, Strain/Indicator: TA100, Metabolic Activation: Rat, Liver, S-9, Method: Plate incorporation)?
The mutagenic call was “inactive; negative”.

What about the mutagenic call (Test System: Ames Salmonella typhimurium, Strain/Indicator: TA1535, Metabolic Activation: None, Method: Plate incorporation) of the same molecule?
The mutagenic call was “inactive; negative”.

What about the mutagenic call (Test System: Ames Salmonella typhimurium, Strain/Indicator: TA1535, Metabolic Activation: Rat, Liver, S-9, Method: Plate incorporation) of the same molecule?
Its mutagenic call is “inactive; negative”.

And the mutagenic call (Test System: Ames Salmonella typhimurium, Strain/Indicator: TA1537, Metabolic Activation: None, Method: Plate incorporation)?
The mutagenic call was “inactive; negative”.

And the mutagenic call (Test System: Ames Salmonella typhimurium, Strain/Indicator: TA1537, Metabolic Activation: Rat, Liver, S-9, Method: Plate incorporation)?
The mutagenic call was “inactive; negative”.

What about the mutagenic call (Test System: E. coli, Strain/Indicator: WP2uvrA-, Metabolic Activation: None, Method: Plate incorporation) of the same molecule?
The mutagenic call was “inactive; negative”.

And the mutagenic call (Test System: E. coli, Strain/Indicator: WP2uvrA-, Metabolic Activation: Rat, Liver, S-9, Method: Plate incorporation)?
The mutagenic call was “inactive; negative”.

`O=S(=O)(O)Oc1c2ccccc2c2ccc3cccc4ccc1c2c43` was tested. Which mutagenic call (Test System: AMES SALMONELLA TYPHIMURIUM, Strain/Indicator: TA98, Metabolic Activation: NONE, Method: PREINCUBATION) did it give?
The mutagenic call was “inactive; negative”.

What about the mutagenic call (Test System: AMES SALMONELLA TYPHIMURIUM, Strain/Indicator: TA98, Metabolic Activation: RAT, LUNG, S-9, Method: PREINCUBATION) of the same molecule?
Its mutagenic call is “inactive; negative”.

Which results are given for `Cc1c(C)c([N+](=O)[O-])c(C(C)(C)C)c([N+](=O)[O-])c1C`?
mutagenic call (Test System: AMES SALMONELLA TYPHIMURIUM, Strain/Indicator: TA98, Metabolic Activation: RAT, LIVER, S-9, AROCLOR 1254, Method: PREINCUBATION): inactive; negative; mutagenic call [1]: inactive; negative; mutagenic call (Test System: AMES SALMONELLA TYPHIMURIUM, Strain/Indicator: TA100, Metabolic Activation: RAT, LIVER, S-9, AROCLOR 1254, Method: PREINCUBATION): inactive; negative; mutagenic call [2]: inactive; negative

What does the source list for `C1CCNCC1`?
mutagenic call (Test System: MOUSE LYMPHOMA, Strain/Indicator: L5178Y (TK+/TK-), Metabolic Activation: NONE, Method: SUSPENSION/PLATE): active; positive; mutagenic call (Test System: MOUSE LYMPHOMA, Strain/Indicator: L5178Y (TK+/TK-), Metabolic Activation: RAT, LIVER, S-9, AROCLOR 1254, Method: SUSPENSION/PLATE): inactive; negative

Which mutagenic call (Test System: AMES SALMONELLA TYPHIMURIUM, Strain/Indicator: TA98, Metabolic Activation: RAT LIVER S-9, AROCLOR 1254 (10%), Method: STANDARD PLATE) does the source give for `Nc1ccc2c(ccc3c4ccccc4ccc23)c1` here?
Its mutagenic call is “active; positive”.

What about the mutagenic call (Test System: AMES SALMONELLA TYPHIMURIUM, Strain/Indicator: TA98, Metabolic Activation: RAT, LIVER, CYTOSOL, AROCLOR 1254, Method: STANDARD PLATE) of the same molecule?
Its mutagenic call is “active; positive”.

And the mutagenic call (Test System: AMES SALMONELLA TYPHIMURIUM, Strain/Indicator: TA98, Metabolic Activation: RAT, LIVER, MICROSOMES, AROCLOR 1254, Method: STANDARD PLATE)?
The mutagenic call was “active; positive”.
